Test results: patent US20220331301A1, “CYSTIC FIBROSIS TRANSMEMBRANE CONDUCTANCE REGULATOR MODULATORS FOR TREATING AUTOSOMAL RESESSIVE POLYCYSTIC KIDNEY DISEASE” (The Johns Hopkins University, priority 2021, published 2022)

System: Pkhd1^del4/del4 cholangiocytes
Assay: Cyst growth of cholangiocytes on matrigel (3D culture)
Type: cell-based, mice
Conditions: for cyst growth / cyst area: 10 μM continuous, cysts induced with Forskolin (10 μM)
Protocol: Note that the cysts treated with forskolin (for) grew larger. […] Note that the cysts treated with forskolin (for) grew larger. […] FIG. 3C for 1 wk. […] Cysts were induced with Forskolin (10 μM) for 24 hours prior to study. Columns represent means±standard error (SEM). **P<0.01 ****P<0.0001 (for all graphs). Statistical analysis was performed using an unpaired two-tailed Student's t-test;
Note that the cysts treated with forskolin (for) grew larger. […] Note that the cysts treated with forskolin (for) grew larger. […] FIG. 4C for 1 wk. […] Cysts were induced with Forskolin (10 μM) for 24 hours prior to study. Columns represent means±standard error (SEM). **P<0.01 ****P<0.0001 (for all graphs). Statistical analysis was performed using an unpaired two-tailed Student's t-test;
But cysts do develop from the Pkhd1del4/del4 cholangiocytes. Cyst growth is accelerated by forskolin (for). […] Yanda et al., 2018. The dosage of VX-809 injected was lower than the human pediatric dose, which is 500 mg of Lumacaftor per day; the adult dose is 800 mg/day.
(Methods and cells provided by the Yale O'Brian Center) To create the cholangiocyte cultures PKhd1del/4/del4, Garcia-Gonzalez et al., 2007, animals were crossed with mice transgenic for the Sv40 large T Antigen (strain name SV40 T-antigen JAX strain #002233). Segments of intrahepatic bile ducts were microdissected from livers perfused via the portal vein with molten agarose containing toluidine blue to mark the veins. The liver parenchyma was stripped until the biliary tree was identified and the bile duct units were seeded onto rat type I collagen coated plates. Cells were cultured under non-permissive conditions in the following medium: DMEM/F12 with 5% fetal bovine serum, 10 μL/mL insulin-transferrin selenium, 3.4 μg/mL triiodothyronine, 50,000 U penicillin/streptomycin under humidified conditions at 37° C. in 5% CO2. After one week, the cells were cultured under permissive conditions in the presence of 10 U of interferon-γ at 33° C. in 5% CO2. When confluent, cells were passaged by digesting the collagen slab below the cells (60 min; 37° C.; DMEM/F12 with 2 mg/mL dispase and 1 mg/mL collagenase type 11), then washed twice in PBS and plated onto collagen coated support systems. Clonal cell lines were generated by single cell isolation. Cells were differentiated for 10 days at 37° C. without interferon-γ for experimental use.

## CCOc1ccc2c(-c3cccc(F)c3)nn(CC(=O)N(C)c3ccc4nc(C)oc4c3)c(=O)c2c1 [FDL 169]
Pkhd1del4/del4 cholangiocytes, time not stated
  cyst growth in 3D culture: reduces growth
Monitored for 1 week
  cyst growth / cyst area: reduced cyst growth in the presence of forskolin
Monitored for 48 hrs
  cyst growth / cyst area: reduced cyst growth in the presence of forskolin
